Key:
LOX IMVI = experiment: Growth inhibition of human LOX IMVI cells assessed as growth percentage at 10 uM measured after 48 hrs by sulforhodamine B assay relative to control; format: functional; conditions: read-out: Activity
[1] = target: Tyrosine-protein kinase SYK (Homo sapiens) (UniProt P43405); experiment: Inhibition of recombinant full length N-terminal His6-tagged human SYK expressed in baculovirus infected Sf21 insect cells at 10 uM relative to control
[2] = target: Ephrin type-B receptor 4 (Homo sapiens) (UniProt P54760); experiment: Inhibition of human EphB4 at 10 uM relative to control
[3] = target: Mitogen-activated protein kinase 1 (Homo sapiens) (UniProt P28482); experiment: Inhibition of recombinant full length N-terminal GST-tagged human MAPK1 expressed in Escherichia coli at 10 uM relative to control
Sequence of Mitogen-activated protein kinase 1 (Homo sapiens) (P28482 whole entry): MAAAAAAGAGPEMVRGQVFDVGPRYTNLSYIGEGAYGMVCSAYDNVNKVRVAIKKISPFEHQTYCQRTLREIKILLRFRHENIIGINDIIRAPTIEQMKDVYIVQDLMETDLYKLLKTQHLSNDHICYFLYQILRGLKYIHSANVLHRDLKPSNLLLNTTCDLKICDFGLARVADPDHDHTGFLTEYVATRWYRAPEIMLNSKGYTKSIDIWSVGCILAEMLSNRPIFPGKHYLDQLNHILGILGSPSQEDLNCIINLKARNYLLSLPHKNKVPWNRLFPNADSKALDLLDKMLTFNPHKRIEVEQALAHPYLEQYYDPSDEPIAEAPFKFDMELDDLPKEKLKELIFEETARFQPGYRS

[4] = target: Mitogen-activated protein kinase 1 (Homo sapiens) (UniProt P28482); experiment: Inhibition of recombinant full length N-terminal GST-tagged human MAPK2 expressed in Escherichia coli at 10 uM relative to control
PC-3 = experiment: cells; format: functional; conditions: Homo sapiens, time 48 hrs
Description: Growth inhibition of human PC-3 cells incubated for 48 hrs by sulforhodamine B assay

[5] = target: Angiopoietin-1 receptor (Homo sapiens) (UniProt Q02763); experiment: Inhibition of recombinant N-terminal His6-tagged human Tie2 (771 to end residues) expressed in baculovirus infected Sf21 insect cells at 10 uM relative to control
[6] = tested on: Tyrosine-protein kinase ABL1 (Homo sapiens), P00519 [T315I]; experiment: Inhibition of recombinant N-terminal His6-tagged human ABL T315I mutant (27 to end residues) expressed in baculovirus infected Sf21 insect cells assessed as residual activity at 10 uM relative to control
[7] = tested on: Panel breast (Carcinoma cell lines); experiment: cells; format: functional; conditions: Homo sapiens, time 48 hrs
Description: Growth inhibition of human Panel breast (Carcinoma cell lines) incubated for 48 hrs by sulforhodamine B assay

NCI-H522 = experiment: cells; format: functional; conditions: Homo sapiens, time 48 hrs
Description: Growth inhibition of human NCI-H522 cells incubated for 48 hrs by sulforhodamine B assay

NCI-H23 = experiment: cells; format: functional; conditions: Homo sapiens, time 48 hrs
Description: Growth inhibition of human NCI-H23 cells incubated for 48 hrs by sulforhodamine B assay

HCT-15 = experiment: cells; format: functional; conditions: Homo sapiens, time 48 hrs
Description: Growth inhibition of human HCT-15 cells incubated for 48 hrs by sulforhodamine B assay

OVCAR-3 = experiment: cells; format: functional; conditions: Homo sapiens, time 48 hrs
Description: Growth inhibition of human OVCAR-3 cells incubated for 48 hrs by sulforhodamine B assay

[8] = target: Fibroblast growth factor receptor 2 (Homo sapiens) (UniProt P21802); experiment: Inhibition of N-terminal His6-tagged human FGFR2 (456 to 770 residues) expressed in baculovirus-infected Sf21 cells assessed as residual activity at 10 uM relative to control
SK-MEL-28 = experiment: cells; format: functional; conditions: Homo sapiens, time 48 hrs
Description: Growth inhibition of human SK-MEL-28 cells incubated for 48 hrs by sulforhodamine B assay

Hs-578T = experiment: cells; format: functional; conditions: Homo sapiens, time 48 hrs
Description: Growth inhibition of human Hs-578T cells incubated for 48 hrs by sulforhodamine B assay

HT-29 = experiment: cells; format: functional; conditions: Homo sapiens, time 48 hrs
Description: Growth inhibition of human HT-29 cells incubated for 48 hrs by sulforhodamine B assay

[9] = target: Serine/threonine-protein kinase 3 (Homo sapiens) (UniProt Q13188); experiment: Inhibition of recombinant N-terminal His6-tagged human MST2 (2 to end residues) expressed in baculovirus infected Sf21 insect cells at 10 uM relative to control
RXF 393 = experiment: cells; format: functional; conditions: Homo sapiens, time 48 hrs
Description: Growth inhibition of human RXF 393 cells incubated for 48 hrs by sulforhodamine B assay

[10] = tested on: Panel melanoma (Carcinoma cell lines); experiment: cells; format: functional; conditions: Homo sapiens, time 48 hrs
Description: Growth inhibition of human Panel melanoma (Carcinoma cell lines) incubated for 48 hrs by sulforhodamine B assay

[11] = target: ALK tyrosine kinase receptor (Homo sapiens) (UniProt Q9UM73); experiment: Inhibition of N-terminal His6-tagged human recombinant ALK (1058 to end residues) expressed in baculovirus infected Sf21 cells assessed as residual activity at 10 uM relative to control
[12] = target: Proto-oncogene tyrosine-protein kinase ROS (Homo sapiens) (UniProt P08922); experiment: Inhibition of recombinant N-terminal His6-tagged human ROS (1883 to end residues) expressed in baculovirus infected Sf21 insect cells at 10 uM relative to control
Sequence of Proto-oncogene tyrosine-protein kinase ROS (Homo sapiens) (P08922 whole entry): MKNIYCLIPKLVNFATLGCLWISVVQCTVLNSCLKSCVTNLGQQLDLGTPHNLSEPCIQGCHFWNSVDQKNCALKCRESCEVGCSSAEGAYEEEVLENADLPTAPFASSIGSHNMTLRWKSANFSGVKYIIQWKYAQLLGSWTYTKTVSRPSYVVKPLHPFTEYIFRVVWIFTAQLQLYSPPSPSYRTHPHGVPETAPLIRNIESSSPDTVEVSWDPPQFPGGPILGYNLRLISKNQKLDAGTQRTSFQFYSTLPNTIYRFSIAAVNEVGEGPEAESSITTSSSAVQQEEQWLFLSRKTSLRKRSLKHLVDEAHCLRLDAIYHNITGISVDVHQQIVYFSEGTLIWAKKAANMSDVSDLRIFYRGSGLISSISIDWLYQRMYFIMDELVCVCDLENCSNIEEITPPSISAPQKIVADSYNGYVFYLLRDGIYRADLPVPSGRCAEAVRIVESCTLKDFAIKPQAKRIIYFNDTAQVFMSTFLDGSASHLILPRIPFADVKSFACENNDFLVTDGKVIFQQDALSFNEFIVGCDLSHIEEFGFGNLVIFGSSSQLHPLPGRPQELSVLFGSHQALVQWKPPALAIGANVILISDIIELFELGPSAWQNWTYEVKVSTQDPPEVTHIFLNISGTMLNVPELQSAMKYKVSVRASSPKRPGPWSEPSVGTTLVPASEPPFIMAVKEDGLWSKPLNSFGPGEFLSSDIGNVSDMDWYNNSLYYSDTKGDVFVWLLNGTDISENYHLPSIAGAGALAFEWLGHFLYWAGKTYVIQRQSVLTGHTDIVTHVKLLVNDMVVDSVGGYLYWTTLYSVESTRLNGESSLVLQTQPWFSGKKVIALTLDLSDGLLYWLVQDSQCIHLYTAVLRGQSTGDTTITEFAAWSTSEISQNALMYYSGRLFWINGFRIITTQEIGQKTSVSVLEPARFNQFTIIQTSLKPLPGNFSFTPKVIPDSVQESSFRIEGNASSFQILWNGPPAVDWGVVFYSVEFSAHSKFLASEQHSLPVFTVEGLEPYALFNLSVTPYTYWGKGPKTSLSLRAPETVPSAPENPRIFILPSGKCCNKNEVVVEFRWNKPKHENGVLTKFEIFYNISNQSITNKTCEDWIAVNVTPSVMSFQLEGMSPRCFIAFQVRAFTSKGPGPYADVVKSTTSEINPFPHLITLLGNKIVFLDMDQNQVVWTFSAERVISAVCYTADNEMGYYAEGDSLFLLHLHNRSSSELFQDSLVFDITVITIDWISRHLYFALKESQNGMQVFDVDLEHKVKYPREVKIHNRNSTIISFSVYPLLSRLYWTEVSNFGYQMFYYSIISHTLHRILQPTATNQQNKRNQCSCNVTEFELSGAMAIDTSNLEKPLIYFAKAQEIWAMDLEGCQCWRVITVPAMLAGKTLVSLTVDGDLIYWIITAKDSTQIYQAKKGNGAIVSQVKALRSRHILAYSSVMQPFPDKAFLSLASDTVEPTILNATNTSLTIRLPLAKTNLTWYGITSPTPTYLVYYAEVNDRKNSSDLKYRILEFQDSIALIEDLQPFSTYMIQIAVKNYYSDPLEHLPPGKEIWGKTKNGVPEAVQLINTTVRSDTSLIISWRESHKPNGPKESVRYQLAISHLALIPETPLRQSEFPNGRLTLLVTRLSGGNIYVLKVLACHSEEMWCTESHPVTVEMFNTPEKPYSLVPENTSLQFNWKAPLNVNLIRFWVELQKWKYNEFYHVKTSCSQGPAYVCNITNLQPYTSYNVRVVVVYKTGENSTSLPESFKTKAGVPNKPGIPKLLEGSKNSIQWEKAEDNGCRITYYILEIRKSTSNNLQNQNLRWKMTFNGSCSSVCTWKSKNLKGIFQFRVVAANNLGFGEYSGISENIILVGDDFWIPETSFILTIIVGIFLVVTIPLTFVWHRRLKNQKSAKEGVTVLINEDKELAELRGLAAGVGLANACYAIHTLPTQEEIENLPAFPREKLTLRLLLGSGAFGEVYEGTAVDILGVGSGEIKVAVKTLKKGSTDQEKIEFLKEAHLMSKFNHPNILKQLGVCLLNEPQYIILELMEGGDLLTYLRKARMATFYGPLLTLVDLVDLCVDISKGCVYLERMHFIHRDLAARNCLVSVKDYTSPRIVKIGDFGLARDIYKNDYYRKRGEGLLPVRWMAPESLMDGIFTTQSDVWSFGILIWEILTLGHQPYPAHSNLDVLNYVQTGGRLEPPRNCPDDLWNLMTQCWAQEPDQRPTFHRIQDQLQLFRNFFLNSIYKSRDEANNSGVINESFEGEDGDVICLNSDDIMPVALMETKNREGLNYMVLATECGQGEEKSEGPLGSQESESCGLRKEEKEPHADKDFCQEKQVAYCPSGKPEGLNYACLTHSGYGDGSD

cells = format: functional; conditions: Homo sapiens, Non-small cell lung cancer cell line; time 48 hrs
Description: Growth inhibition of human Non-small cell lung cancer cell line incubated for 48 hrs by sulforhodamine B assay

[13] = tested on: PI3-kinase p110-alpha/p85-alpha (Homo sapiens), P27986+P42336 [E545K]; experiment: Inhibition of p110alpha/p85alpha E545K mutant (unknown origin) at 10 uM relative to control; format: protein-complex assay
MDA-MB-468 = experiment: cells; format: functional; conditions: Homo sapiens, time 48 hrs
Description: Growth inhibition of human MDA-MB-468 cells incubated for 48 hrs by sulforhodamine B assay

SF-295 = experiment: cells; format: functional; conditions: Homo sapiens, time 48 hrs
Description: Growth inhibition of human SF-295 cells incubated for 48 hrs by sulforhodamine B assay

A498 = experiment: cells; format: functional; conditions: Homo sapiens, time 48 hrs
Description: Growth inhibition of human A498 cells incubated for 48 hrs by sulforhodamine B assay

[14] = target: Serine/threonine-protein kinase Sgk1 (Homo sapiens) (UniProt O00141); experiment: Inhibition of human SGK1 at 10 uM relative to control; conditions: Sf21
[15] = target: Ribosomal protein S6 kinase alpha-1 (Homo sapiens) (UniProt Q15418); experiment: Inhibition of recombinant full length N-terminal His6-tagged human RSK1 expressed in Sf21 insect cells at 10 uM relative to control
[16] = target: Tyrosine-protein kinase BTK (Homo sapiens) (UniProt Q06187); experiment: Inhibition of recombinant full length N-terminal His6-tagged human BTK expressed in baculovirus infected Sf21 cells assessed as residual activity at 10 uM relative to control
[17] = target: Epidermal growth factor receptor (Homo sapiens) (UniProt P00533); experiment: Inhibition of N-terminal GST-tagged human EGFR (696 to end residues) expressed in baculovirus-infected Sf21 cells assessed as residual activity at 10 uM relative to control
[18] = tested on: Panel CNS (Carcinoma cell lines); experiment: cells; format: functional; conditions: Homo sapiens, time 48 hrs
Description: Growth inhibition of human Panel CNS (Carcinoma cell lines) incubated for 48 hrs by sulforhodamine B assay

[19] = target: Cytoplasmic tyrosine-protein kinase BMX (Homo sapiens) (UniProt P51813); experiment: Inhibition of N-terminal full length His6-tagged human recombinant BMX expressed in Sf21 cells assessed as residual activity at 10 uM relative to control
Sequence of Cytoplasmic tyrosine-protein kinase BMX (Homo sapiens) (P51813 whole entry): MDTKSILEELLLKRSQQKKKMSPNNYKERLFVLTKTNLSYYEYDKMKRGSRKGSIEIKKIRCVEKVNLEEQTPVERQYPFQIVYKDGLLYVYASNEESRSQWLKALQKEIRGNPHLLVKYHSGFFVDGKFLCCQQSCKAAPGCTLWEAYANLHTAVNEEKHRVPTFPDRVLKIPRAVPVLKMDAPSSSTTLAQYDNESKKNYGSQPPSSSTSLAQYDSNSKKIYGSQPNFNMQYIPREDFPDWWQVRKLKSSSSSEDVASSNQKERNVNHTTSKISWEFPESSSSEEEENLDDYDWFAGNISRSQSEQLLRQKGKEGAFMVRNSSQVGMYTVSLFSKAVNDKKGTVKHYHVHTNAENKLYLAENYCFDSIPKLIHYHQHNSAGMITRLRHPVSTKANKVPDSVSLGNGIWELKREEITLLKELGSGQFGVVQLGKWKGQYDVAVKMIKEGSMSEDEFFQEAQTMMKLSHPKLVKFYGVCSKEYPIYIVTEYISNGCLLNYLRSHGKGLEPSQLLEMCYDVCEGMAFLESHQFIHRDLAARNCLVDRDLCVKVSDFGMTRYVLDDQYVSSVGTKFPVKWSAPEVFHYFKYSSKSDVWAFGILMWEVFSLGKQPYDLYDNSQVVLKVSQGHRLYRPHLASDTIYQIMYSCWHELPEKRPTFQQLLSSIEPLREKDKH

[20] = target: Hepatocyte growth factor receptor (Homo sapiens) (UniProt P08581); experiment: Inhibition of recombinant N-terminal His6-tagged human MET (974 to end residues) expressed in baculovirus infected Sf21 insect cells at 10 uM relative to control
Sequence of Hepatocyte growth factor receptor (Homo sapiens) (P08581 whole entry): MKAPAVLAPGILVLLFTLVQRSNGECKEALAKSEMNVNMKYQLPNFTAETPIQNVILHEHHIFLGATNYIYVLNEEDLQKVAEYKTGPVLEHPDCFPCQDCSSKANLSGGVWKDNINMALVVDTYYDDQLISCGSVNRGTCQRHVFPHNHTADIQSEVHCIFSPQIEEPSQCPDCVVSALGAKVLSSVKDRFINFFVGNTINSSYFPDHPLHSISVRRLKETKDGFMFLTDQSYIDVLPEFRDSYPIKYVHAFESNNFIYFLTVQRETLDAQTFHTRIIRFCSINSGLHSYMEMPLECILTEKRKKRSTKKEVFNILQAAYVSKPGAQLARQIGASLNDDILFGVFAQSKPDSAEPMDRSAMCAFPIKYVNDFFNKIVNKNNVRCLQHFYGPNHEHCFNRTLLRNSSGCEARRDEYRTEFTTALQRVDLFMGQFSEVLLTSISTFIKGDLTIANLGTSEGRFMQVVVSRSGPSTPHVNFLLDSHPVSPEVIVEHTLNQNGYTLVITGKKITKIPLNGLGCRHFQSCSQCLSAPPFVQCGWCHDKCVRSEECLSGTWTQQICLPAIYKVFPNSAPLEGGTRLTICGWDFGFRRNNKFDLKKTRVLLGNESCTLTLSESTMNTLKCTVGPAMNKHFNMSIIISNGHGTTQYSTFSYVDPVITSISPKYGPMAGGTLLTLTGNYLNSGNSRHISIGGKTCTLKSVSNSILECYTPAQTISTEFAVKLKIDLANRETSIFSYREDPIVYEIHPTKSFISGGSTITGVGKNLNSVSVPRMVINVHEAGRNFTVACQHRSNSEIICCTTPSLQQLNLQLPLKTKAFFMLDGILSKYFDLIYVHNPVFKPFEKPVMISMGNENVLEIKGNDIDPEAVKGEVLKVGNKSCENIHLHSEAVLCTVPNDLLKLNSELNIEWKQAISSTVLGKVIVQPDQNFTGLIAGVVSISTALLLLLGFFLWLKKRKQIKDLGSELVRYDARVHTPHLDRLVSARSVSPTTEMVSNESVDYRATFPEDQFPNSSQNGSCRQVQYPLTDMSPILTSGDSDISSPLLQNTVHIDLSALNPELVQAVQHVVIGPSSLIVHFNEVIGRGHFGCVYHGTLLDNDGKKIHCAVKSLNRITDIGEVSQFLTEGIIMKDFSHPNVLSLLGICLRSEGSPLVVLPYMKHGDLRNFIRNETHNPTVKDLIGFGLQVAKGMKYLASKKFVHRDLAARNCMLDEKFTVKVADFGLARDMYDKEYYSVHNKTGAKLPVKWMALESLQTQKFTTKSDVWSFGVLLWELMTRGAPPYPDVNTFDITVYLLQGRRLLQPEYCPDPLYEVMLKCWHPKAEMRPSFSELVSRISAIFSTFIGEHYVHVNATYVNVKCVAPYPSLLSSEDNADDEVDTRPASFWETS

[21] = tested on: Panel prostate (Carcinoma cell lines); experiment: cells; format: functional; conditions: Homo sapiens, time 48 hrs
Description: Growth inhibition of human Panel prostate (Carcinoma cell lines) incubated for 48 hrs by sulforhodamine B assay

NCI-H460 = experiment: cells; format: functional; conditions: Homo sapiens, time 48 hrs
Description: Growth inhibition of human NCI-H460 cells incubated for 48 hrs by sulforhodamine B assay

[22] = target: Vascular endothelial growth factor receptor 3 (Homo sapiens) (UniProt P35916); experiment: Inhibition of N-terminal GST-tagged human FLT4 (800 to end residues) expressed in baculovirus infected Sf21 cells assessed as residual activity at 10 uM relative to control
U-251 = experiment: cells; format: functional; conditions: Homo sapiens, time 48 hrs
Description: Growth inhibition of human U-251 cells incubated for 48 hrs by sulforhodamine B assay

[23] = read-out: LC50 (the source's name)

CN1CCN(CCCOc2cccc3nc(Nc4ccc(Cl)c(C(F)(F)F)c4)ccc23)CC1
growth at 10 µM (LOX IMVI): -5.77%
inhibition [1]: < 60%
inhibition [2]: < 60%
inhibition [3]: < 60%
inhibition [4]: < 60%
GI50 (PC-3): 1.57 µM
inhibition [5]: < 60%
Activity [6]: < 60%
GI50 [7]: 1.69 µM
TGI [7]: 3.63 µM
CC50 [7, 23]: 11.2 µM
GI50 (NCI-H522): 1.83 µM
GI50 (NCI-H23): 1.78 µM
GI50 (HCT-15): 1.22 µM
GI50 (OVCAR-3): 1.81 µM
Activity [8]: < 60%
GI50 (SK-MEL-28): 1.39 µM
GI50 (Hs-578T): 2 µM
GI50 (HT-29): 1.12 µM
inhibition [9]: < 60%
GI50 (RXF 393): 1.63 µM
GI50 [10]: 1.71 µM
LC50 [10]: 6.7 µM
TGI [10]: 3.38 µM
Activity [11]: < 60%
inhibition [12]: < 60%
GI50 (cells): 1.68 µM
LC50 (50% lethal concentration) (cells): 10.1 µM
TGI (cells): 3.66 µM
inhibition [13]: < 60%
GI50 (MDA-MB-468): 1.6 µM
GI50 (SF-295): 1.8 µM
GI50 (A498): 1.68 µM
inhibition [14]: < 60%
inhibition [15]: < 60%
Activity [16]: < 60%
Activity [17]: < 60%
GI50 [18]: 1.65 µM
TGI [18]: 3.67 µM
CC50 [18, 23]: 6.98 µM
Activity [19]: < 60%
inhibition [20]: < 60%
GI50 [21]: 1.69 µM
LC50 (concentration killing 50% of cells) [21]: 5.88 µM
TGI [21]: 3.15 µM
GI50 (NCI-H460): 1.72 µM
Activity [22]: < 60%
GI50 (U-251): 1.49 µM
